The record followed here is the METLIN SMRT retention time set (Domingo-Almenara et al. 2019).

The series in a line: gradient 5% acetonitrile 3 min, to 50% in 2 min, to 85% in 15 min, held 3 min, 100 µL/min. The settings on record: column: Zorbax Extend-C18 2.1 x 50 mm; eluents: water / acetonitrile, 0.1% formic acid. In outline:
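Mixtures of ~100 pure standards were chromatographed on a Zorbax Extend-C18 column (2.1 × 50 mm, 1.8 μm) at 100 μL/min using water and acetonitrile, each with 0.1% formic acid. Detection used a quadrupole time-of-flight mass spectrometer in positive and negative ionization mode, and data collection spanned 3 months. Retention time was obtained from adduct peaks picked computationally and each checked manually.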
`O=C(Nc1cc(F)ccc1F)c1cc2sccc2n1Cc1ccc(Cl)cc1` gave an RP-LC retention time of 1280 s.

As for `COc1ccc(C(O)CN2CCN(c3ccccc3)CC2)cc1OC` (stereo not given), the RP-LC retention time was 607 s. The value for `CCOC(=O)NCC1CCN(Cc2ccccc2SC)CC1` was 566 s; that for `CCS(=O)(=O)NCc1cccnc1Oc1ccccc1` was 788 s; that for `CC(C)NC(=O)N1CCCC(c2cccc(C(=O)NCc3ccccc3Cl)c2)C1` (stereo not given) was 909 s. In turn, `CCc1ccccc1NS(=O)(=O)c1ccc2c(c1)C(=O)N(CC)c1ncccc1O2` had an RP-LC retention time of 1050 s.

Consider `O=C(CCC1CCCN(S(=O)(=O)c2ccc(F)cc2)C1)NC1CC1` (stereo not given), for which the RP-LC retention time was found to be 764 s.

`O=C(N[C@H]1C[C@@H]2C[C@H]1N(C(=O)c1ccc3c(c1)OCO3)C2)c1ccccc1`: the RP-LC retention time worked out at 721 s. The value for `COc1ccc(Cl)cc1S(=O)(=O)NCCc1c[nH]c2ncccc12` was 654 s. The value for `CCN1CCn2cc(S(=O)(=O)Nc3ccc(F)cc3C)cc2C1=O` was 730 s; that for `O=C(Cc1cccs1)N1CCC2(CC1)OCCN2S(=O)(=O)c1ccccc1` was 783 s.

With `COc1ccccc1C(CNC(=O)c1cc(=O)c2cc(C)cc(C)c2o1)N(C)C` (stereo not given), the RP-LC retention time came out at 659 s. Take `COc1cn(CC(=O)Nc2cc(C)on2)c(CN2CCCCC2)cc1=O`: the RP-LC retention time worked out at 566 s. Compound `COc1cccc(CNC(=O)Nc2c(-c3ccc(C)cc3)nc3ccccn23)c1` registered an RP-LC retention time of 658 s. The value for `O=C(Nc1ccc(OC2CCNCC2)nc1)C1(c2ccccc2)CC1` was 646 s. In turn, `CN(C)S(=O)(=O)c1ccc(-c2nc3ccccc3s2)cc1` yielded an RP-LC retention time of 578 s. The compound `COc1ccc(N2CCN(c3cc(SCC(=O)Nc4ccc(C)cc4C)ncn3)CC2)cc1` returned an RP-LC retention time of 1020 s. `Cc1ccc(-c2nnc(-c3ccc(Cl)c(S(=O)(=O)N4CCCC4)c3)o2)cc1` came in with an RP-LC retention time of 1150 s.

Consider `CCn1cc2nc(SCc3cc(F)cc(F)c3)n(Cc3ccccc3F)c(=O)c2n1`, for which the RP-LC retention time turned out to be 1150 s. In turn, `O=S(=O)(c1cccc(Br)c1)N1CCc2nc(-c3ccc(F)cc3)ncc2C1` gave an RP-LC retention time of 1160 s. `O=C(c1cccs1)N1CCc2cc(-c3ccno3)ccc21` yielded an RP-LC retention time of 887 s.

As for `Cc1ccc2cc(CCC(=O)NCCCN3CCCC(C)C3)c(=O)[nH]c2c1` (stereo not given), the RP-LC retention time stood at 605 s. The value for `COc1ccc(N2CCN(C(=O)CCc3nnc4c5cc(-c6ccccc6)nn5ccn34)CC2)cc1` was 730 s; that for `CCOC(=O)c1noc2ncnc(Nc3ccc(C)cc3C)c12` was 1030 s; that for `Cc1ccc(S(=O)(=O)Nc2cc(-c3cn4ccccc4n3)ccc2C)cc1` was 668 s.

On to `O=c1c2cc3c(cc2nc(SCc2nc(-c4ccccc4)no2)n1Cc1ccncc1)OCO3`, for which the RP-LC retention time is 776 s.

As for `O=C(Cn1cnc2ccccc2c1=O)N[C@@H](Cc1ccccc1)C(=O)O`, the RP-LC retention time came to 671 s.

`CCNC(=O)CN1c2ccc(F)cc2-c2ccccc2S1(=O)=O` yielded an RP-LC retention time of 786 s. The value for `O=C(NCCN1CCOCC1)c1csc(N2CCN(c3ccc(F)cc3)CC2)n1` was 664 s; that for `O=C(CCCc1ccccc1)NCC1CN(c2ccc3c(c2)OCO3)C(=O)O1` (stereo not given) was 750 s. The value for `O=C(CCCS(=O)(=O)c1ccccc1)Nc1nnc(-c2ccsc2)o1` was 674 s; that for `CCCC(=O)Nc1ccc2c(c1)CN(C(=O)c1ccccc1Cl)C(C(=O)N(C)C)C2` (stereo not given) was 707 s.

As to `COc1cc(NC(=O)CCl)ccc(=O)c1`, the RP-LC retention time came to 631 s. Regarding `Fc1ccc(-c2nc(-c3ccc4nncn4c3)no2)cc1F`, the RP-LC retention time worked out at 822 s.

Consider `CCn1c(C)c(C(C)=O)c2cc(OCC(O)CNC(C)c3ccccc3)ccc21` (stereo not given), for which the RP-LC retention time turned out to be 590 s. Compound `CC1=C(c2ccc(F)cc2)S(=O)(=O)N=C1N1CCCN(C(=O)c2ccccc2C)CC1` yielded an RP-LC retention time of 831 s.

Turning to `CC1CCC(NC(=O)C2CCCN(S(=O)(=O)c3c[nH]c(C(=O)N4CCCC4)c3)C2)CC1` (stereo not given), the RP-LC retention time turned out to be 784 s. `CCc1ccccc1NC(=O)N1CCC(n2cnc3c(C)cccc3c2=O)CC1` yielded an RP-LC retention time of 853 s.

Take `Cc1nc(C)c(C(=O)Nc2nc(-c3ccc(-c4ccccc4)cc3)cs2)s1`: the RP-LC retention time was found to be 1210 s.

`Cc1ccc(Cl)cc1NC(=O)CC1C(=O)NCCN1C(=O)NC1CCCCC1` (stereo not given) showed an RP-LC retention time of 766 s.

`Cc1ccc(CNC(=O)NCCC2CCN(S(=O)(=O)c3ccccc3)CC2)cc1` showed an RP-LC retention time of 877 s.

Turning to `Cc1ccc(NC(=O)CN2C(=O)NC3(CCCCC3)C2=O)cc1`, the RP-LC retention time came to 760 s. The same measure for `Cc1cc(-c2nnc(-c3ccccc3)o2)c(C)n1CC(=O)NCc1ccc(F)cc1F`: 934 s. `CCCNc1cc(N2CCCC(CCC(=O)N3CCC(COC)CC3)C2)ncn1` (stereo not given) registered an RP-LC retention time of 649 s. The value for `Fc1ccccc1-c1noc(-c2nc(Cc3ccccc3)no2)n1` was 1160 s; that for `COc1ccccc1NC(=O)CN1CCC(c2nc(-c3cccs3)no2)CC1` was 682 s; that for `CCOc1ccc(-c2nc(CNC(=O)Nc3ccc(OC)c(OC)c3)c(C)o2)cc1` was 822 s. In turn, `Cc1cc(F)ccc1NS(=O)(=O)c1cc(-c2[nH]ncc2C(=O)N2CCCCC2)oc1C` gave an RP-LC retention time of 770 s. Take `O=S(=O)(Nc1ccc(F)cc1Cl)c1c[nH]c2ncccc12`: the RP-LC retention time came to 740 s. In turn, `Cc1ccc(C(=O)NC2CCN(c3cc(N4CCCC4)cnn3)C2)s1` (stereo not given) displayed an RP-LC retention time of 649 s. In the case of `CCCN1C(=O)COc2ccc(-c3noc(-c4ccccc4)n3)cc21`, the RP-LC retention time turned out to be 1210 s. Take `Cc1cc(N2CCN(c3ccccn3)CC2)n2nc(-c3ccc(Cl)cc3)c(C)c2n1`: the RP-LC retention time came to 649 s. As for `CCOC(=O)c1cc(S(=O)(=O)N2CCCC2C(=O)Nc2ccc(Br)c(C)c2)cn1C` (stereo not given), the RP-LC retention time came to 1080 s. `CCCNC(=O)NC1CCN(c2nc3cccnc3n(Cc3ccc(C)cc3)c2=O)CC1` yielded an RP-LC retention time of 1010 s.

In turn, `O=C(NCCc1csc(-c2ccccc2)n1)C1CCN(S(=O)(=O)c2cccs2)CC1` registered an RP-LC retention time of 776 s.

For the compound `COc1ccc(NC(=O)CCNc2cnc3cnccn23)cc1Cl`, the RP-LC retention time stood at 603 s. The same measure for `C(=C\CSc1ccccn1)/CSc1ccccn1`: 955 s; for `CCC(C(=O)NCCc1c(C)nn(CC)c1C)n1c2ccccc2c2cnn(C)c(=O)c21` (stereo not given): 698 s; for `CC(=O)Nc1ccc(-c2nc(-c3ccc4c(c3)oc(=O)n4C(C)C)no2)cc1`: 943 s. For `Cc1cccc(-c2nnc(-c3cc(S(=O)(=O)N4CCCC4)ccc3Cl)o2)c1`, the RP-LC retention time came to 1110 s.
